Results published in patent US20240368174A1, “Antiviral Heterocyclic Compounds” (Enanta Pharmaceuticals, Inc., priority 2023, published 2024).

System: HMPV clinical isolate A2 strain TN 94-49
Assay: HMPV antiviral assay, Method 2 (LLC-MK2 cells with CP-100-356, ATP-Lite)
Assay type: cell-based
Settings: human metapneumovirus, 168 h; hMPV A2 TN/94-49, LLC-MK2 cells with 4 μM CP-100-356, 7 days, ATP-Lite
Procedure, shortened: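 LLC-MK2 rhesus kidney cells (5,000/well) infected in suspension with HMPV A2 TN 94-49 at MOI 0.16, in serum-free medium with final 2 μg/mL TPCK-trypsin and 2 μM CP-100-356. Compounds tested in duplicate from 200 nM, 2.5-fold, 10 points; 7 days at 37 °C. Cell health by ATP-Lite luminescence; EC50 by four-parameter fit.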

SMILES	EC50 [µM]
COc1cc(C(=O)NC[C@](O)(c2cc3c(c(-c4ccnc(C5CCOCC5)c4Cl)n2)OC[C@]3(C)C(N)=O)C2CC2)cc2oc(C3CC3)nc12 [Example 906]	> 0.2
CCc1nccc(-c2nc([C@@](O)(CNC(=O)c3cc(OC)c4nn(C5CC5)cc4c3)C3CC3)cc3c2OC[C@]3(C)C(N)=O)c1Cl [Example 807]	< 0.2
COc1cc(C(=O)NCC(O)(c2cc3c(c(-c4cc(C(F)(F)F)ncc4Cl)n2)OC[C@]3(C)C(N)=O)C2CC2)cc2cn(C3CC3)nc12 (stereo partly shown) [Example 870]	> 0.2
COc1cc(C(=O)NC[C@](O)(c2cc3c(c(-c4cc(C(F)(F)F)ncc4F)n2)OC[C@]3(C)C(N)=O)C2(F)CC2)cc2cn(C3CC3)nc12 [Example 665]	< 0.2
COc1cc(C(=O)NC[C@@](O)(c2ccc(F)cc2)c2cc3c(c(-c4ccnc(C)c4Cl)n2)OC[C@]3(C)C(N)=O)cc2oc(C3CC3)nc12 [Example 649]	< 0.2
COc1cc(C(=O)NC[C@@](O)(c2ccccc2)c2cc3c(c(-c4ccnc(C)c4Cl)n2)OC[C@]3(C)C(N)=O)cc2cn(C3CC3)nc12 [Example 692]	< 0.2
COc1cc(C(=O)NC[C@](O)(c2cc3c(c(-c4ccnc5[nH]ccc45)n2)OC[C@]3(C)C(N)=O)C2CC2)cc2cn(C3CC3)nc12 [Example 728]	> 0.2
COc1cc(C(=O)NC[C@@](O)(c2ccccc2)c2cc3c(c(-n4ncc5c(F)cccc54)n2)OC[C@]3(C)C(N)=O)cc2cn(C(F)F)nc12 [Example 636]	< 0.2
COc1cc(-c2nc([C@@](O)(CNC(=O)c3cc(OC)c4nc(C5CC5)oc4c3)c3ccccc3)cc3c2OC[C@]3(C)C(N)=O)c(F)cn1 [Example 638]	< 0.2
COc1cc(C(=O)NC[C@](O)(c2cc3c(c(-c4ccnc5c4OCCO5)n2)OC[C@]3(C)C(N)=O)C2CC2)cc2cn(C3CC3)nc12 [Example 812]	> 0.2
COc1cc(C(=O)NC[C@](O)(c2cc3c(c(-n4ncc5c4CCCC5)n2)OC[C@]3(C)C(N)=O)C2CC2)cc2cn(C3(F)CC3)nc12 [Example 643]	> 0.2
COc1nccc(-c2nc([C@@](O)(CNC(=O)c3cc(OC4CC4)c4nn(C5(F)CC5)cc4c3)C(C)C)cc3c2OC[C@]3(C)C(N)=O)c1Cl [Example 892]	< 0.2
COc1cc(C(=O)NC[C@](O)(c2cc3c(c(-n4ncc5c(F)cccc54)n2)OC[C@]3(C)C(N)=O)C(F)(F)F)cc2oc(C3CC3)nc12 [Example 836]	> 0.2
COc1nccc(-c2nc([C@@](O)(CNC(=O)c3cc(OC4CC4)c4nn(C(F)F)cc4c3)C(C)C)cc3c2OC[C@]3(C)C(N)=O)c1Cl [Example 894]	> 0.2
COc1cc(C(=O)NC[C@](O)(c2cc3c(c(-c4cc(C(F)(F)F)ncc4F)n2)OC[C@]3(C)C(N)=O)C(F)(F)F)cc2cn(C3CC3)nc12 [Example 845]	< 0.2
COc1cc(C(=O)NC[C@@](O)(c2ccc(F)cc2)c2cc3c(c(-c4ccnc(C)c4Cl)n2)OC[C@]3(C)C(N)=O)cc2cn(C3CC3)nc12 [Example 646]	< 0.2
COc1cc(C(=O)NC[C@](O)(c2cc3c(c(-c4ccnc(C(F)(F)F)c4)n2)OC[C@]3(C)C(N)=O)C2CC2)cc2oc(C3CC3)nc12 [Example 763]	< 0.2
COc1nccc(-c2nc([C@@](O)(CNC(=O)c3cc(OC)c4nc(C5CC5)oc4c3)C3CC(F)(F)C3)cc3c2OC[C@]3(C)C(N)=O)c1Cl [Example 897]	> 0.2

Same assay, conditions: human metapneumovirus; hMPV A2 TN/94-49, LLC-MK2 cells with CP-100-356, Method 2

SMILES	EC50 [µM]
C[C@]1(C(N)=O)COc2c1cc([C@@](O)(CNC(=O)c1cc(OC3CC3)c3ncc(Cl)cc3c1)C1CC1)nc2-c1cc(Cl)c(F)cc1F [Example 226]	< 0.2
COc1cc(C(=O)NC[C@](O)(c2cc3c(c(-c4cc(C(F)(F)F)c(F)cc4F)n2)OC[C@]3(C)C(N)=O)C2CC2)cc2cc(C(F)(F)F)cnc12 [Example 329]	< 0.2
COc1cc(C(=O)NC[C@](O)(c2cc3c(c(-c4ccnc(C)c4Cl)n2)OC[C@]3(C)C(N)=O)C2(F)CC2)cn2cc(C3(F)CC3)nc12 [Example 528]	> 0.2
C[C@]1(C(N)=O)COc2c1cc([C@@](O)(CNC(=O)c1ccc3nc(C4CCC4)oc3c1)c1ccccc1)nc2-c1cc(Cl)c(F)cc1F [Example 221]	> 0.2
Cc1nccc(-c2nc([C@@](O)(CNC(=O)c3cc(OC4CC4)c4nn(C(F)F)cc4c3)C3CC3)cc3c2OC[C@]3(C)C(N)=O)c1Cl [Example 601]	< 0.2
COc1cc(C(=O)NC[C@](O)(c2cc3c(c(-c4ccnc(C)c4Cl)n2)OC[C@]3(C)C(N)=O)C2(F)CC2)cc2oc(C3(F)CC3)nc12 [Example 532]	> 0.2
C[C@]1(C(N)=O)COc2c1cc([C@@](O)(CNC(=O)c1cc(OC3CC3)c3ncc(Cl)cc3c1)c1ccccc1)nc2-c1cc(C(F)(F)F)c(F)cc1F [Example 315]	< 0.2
COc1cc(C(=O)NC[C@@](O)(c2cccc(S(N)(=O)=O)c2)c2cc3c(c(-c4cc(Cl)c(F)cc4F)n2)OC[C@]3(C)C(N)=O)cc2cn(C3CC3)nc12 [Example 486]	> 0.2
COc1cc(C(=O)NC[C@@](O)(c2ccccc2)c2cc3c(c(-c4cccc(Cl)c4F)n2)OC[C@]3(C)C(N)=O)cc2cn(C3(F)CC3)nc12 [Example 369]	< 0.2
C[C@]1(C(N)=O)COc2c1cc([C@@](O)(CNC(=O)c1cc(C(F)F)c3nn(C4CC4)cc3c1)c1ccccc1)nc2-c1cc(Cl)c(F)cc1F [Example 229]	< 0.2
COc1cc(C(=O)NC[C@@](O)(c2cccc(F)c2)c2cc3c(c(-c4ccc5c(c4Cl)OC(F)(F)O5)n2)OC[C@]3(C)C(N)=O)cc2oc(C3CC3)nc12 [Example 286]	< 0.2
COc1cc(C(=O)NC[C@@](O)(c2cccc(F)c2)c2cc3c(c(-c4cccc(Cl)c4Cl)n2)OC[C@]3(C)C(N)=O)cc2cc(C3CC3)nn12 [Example 336]	< 0.2
COc1nccc(-c2nc([C@@](O)(CNC(=O)c3cc(OC)c4nc(C(F)F)oc4c3)C(F)(F)F)cc3c2OC[C@]3(C)C(N)=O)c1Cl [Example 547]	> 0.2
C[C@]1(C(N)=O)COc2c1cc([C@@](O)(CNC(=O)c1cc(OC3CC3)c3nn(C4CC4)cc3c1)c1ccccc1)nc2-c1cc(Cl)c(F)cc1F [Example 98]	< 0.2
COc1cc(C(=O)NC[C@](O)(c2cc3c(c(-c4ccnc(C)c4F)n2)OC[C@]3(C)C(N)=O)C2CC2)cc2cn(C3CC3)nc12 [Example 428]	< 0.2
COc1cc(C(=O)NC[C@@](O)(c2cccc(C(C)O)c2)c2cc3c(c(-c4cccc(Cl)c4Cl)n2)OC[C@]3(C)C(N)=O)cc2cn(C3CC3)nc12 (stereo partly shown) [Example 495]	> 0.2
COc1cc(C(=O)NCC(O)(c2ccccc2)c2cc3c(c(-c4ccc(F)c(Cl)c4)n2)OC[C@]3(C)C(N)=O)cc2cn(C3(F)CC3)nc12 (stereo partly shown) [Example 362]	< 0.2

SMILES	EC50 [µM]
COc1cc(C(=O)NC[C@@](O)(c2cccc(F)c2)c2cc3c(c(-c4cccc(Cl)c4Cl)n2)OC[C@]3(C)C(N)=O)cc2cc(Cl)cnc12 [Example 333]	< 0.2
C[C@]1(C(N)=O)COc2c1cc([C@@](O)(CNC(=O)c1ccc3nc(C4CC4)oc3c1)c1ccccc1)nc2-c1cc(F)c(F)cc1F [Example 194]	< 0.2
Cc1nc2ccc(C(=O)NC[C@@](O)(c3ccccc3)c3cc4c(c(-c5cc(F)c(F)cc5F)n3)OC[C@]4(C)C(N)=O)cc2o1 [Example 192]	< 0.2
COc1cc(C(=O)NC[C@@](O)(c2ccnc(F)c2)c2cc3c(c(-c4cccc(Cl)c4Cl)n2)OC[C@]3(C)C(N)=O)cc2cn(C3CC3)nc12 [Example 492]	< 0.2
COc1nccc(-c2nc([C@@](O)(CNC(=O)c3cc(OC)c4nn(C(F)F)cc4c3)c3cccc(F)c3)cc3c2OC[C@]3(C)C(N)=O)c1Cl [Example 558]	< 0.2
COc1cc(C(=O)NC[C@@](O)(c2ccccc2)c2cc3c(c(-c4cc(Cl)c(F)cc4F)n2)OC[C@]3(C)C(N)=O)cc2c1OCCC2 [Example 93]	> 0.2
COc1cc(C(=O)NC[C@](O)(c2cc3c(c(-c4ccnc(C(F)(F)F)c4Cl)n2)OC[C@]3(C)C(N)=O)C(F)(F)F)cn2cc(C3CC3)nc12 [Example 598]	< 0.2
COc1cc(C(=O)NCC(O)(c2cc(F)nc(F)c2)c2cc3c(c(-c4cccc(Cl)c4Cl)n2)OC[C@]3(C)C(N)=O)cc2cn(C3CC3)nc12 (stereo partly shown) [Example 499]	< 0.2
COc1cc(C(=O)NC[C@@](O)(c2cccc(F)c2)c2cc3c(c(-c4ccnc(C(F)F)c4Cl)n2)OC[C@]3(C)C(N)=O)cc2oc(C3CC3)nc12 [Example 567]	< 0.2
COc1cc(C(=O)NC[C@](O)(c2cc3c(c(-c4ccnc5ccccc45)n2)OC[C@]3(C)C(N)=O)C2CC2)cc2cn(C3CC3)nc12 [Example 430]	< 0.2
C[C@]1(C(N)=O)COc2c1cc([C@@](O)(CNC(=O)c1cc(OC3CC3)c3nn(C(F)F)cc3c1)C(F)(F)F)nc2-c1ccnc(C(F)(F)F)c1Cl [Example 594]	< 0.2
COc1cc(C(=O)NC[C@@](O)(c2cncnc2)c2cc3c(c(-c4cc(Cl)c(F)cc4F)n2)OC[C@]3(C)C(N)=O)cc2cn(C3CC3)nc12 [Example 479]	< 0.2
COc1cc(C(=O)NC[C@](O)(c2cc3c(c(-c4cc(F)c(F)cc4F)n2)OC[C@]3(C)C(N)=O)C2CC2)cc2cc(Cl)cnc12 [Example 103]	< 0.2
COc1cc(C(=O)NC[C@@](O)(c2ccc(F)cc2)c2cc3c(c(-c4ccnc(C(F)(F)F)c4F)n2)OC[C@]3(C)C(N)=O)cc2cn(C3CC3)nc12 [Example 571]	< 0.2
COc1cc(C(=O)NC[C@@](O)(c2ccccc2)c2cc3c(c(-c4ccc(S(C)(=O)=O)cc4F)n2)OC[C@]3(C)C(N)=O)cc2cn(C3(F)CC3)nc12 [Example 371]	> 0.2
C[C@]1(C(N)=O)COc2c1cc([C@@](O)(CNC(=O)c1cc(OC3CC3)c3nn(C4CC4)cc3c1)C(F)(F)F)nc2-c1ccnc(C(F)(F)F)c1Cl [Example 593]	< 0.2
C[C@]1(C(N)=O)COc2c1cc([C@@](O)(CNC(=O)c1cc(Cl)c3nn(C4CC4)cc3c1)c1ccccc1)nc2-c1cc(Cl)c(F)cc1F [Example 99]	< 0.2
